# In the Kinase Knowledgebase extract (Sharma et al. 2016):
# “And” between values parts separate entries of the source, which are not always exact repeats. Equal entries are not always repeated.
# Assays:
# Experiment in all cases: Enzyme Assay
# [1] = biological target: CDK2 (UniProt P24941)
# [2] = biological target: CDK2 (UniProt P24941); remark: listed apart in the source
# [3] = biological target: CDK2 (UniProt P24941); remark: listed apart in the source
SMILES,IC50 [1],IC50 [2],IC50 [3] [nM]
COc1ccc(Nc2ncc3ccc(=O)n(C(C)C)c3n2)cc1,540 nM,–,392
CCCn1c(=O)ccc2cnc(Nc3cc(OC)c(OC)c(OC)c3)nc21,1650 nM,–,–
CCCCn1c(=O)ccc2cnc(Nc3cc(Cl)cc(Cl)c3)nc21,3780 nM,–,–
Cc1cc(Nc2ncc3ccc(=O)n(C(C)C)c3n2)ccc1Cl,350 nM,220 nM,–
CCCn1c(=O)ccc2cnc(N(C)c3ccc(O)c(N4CCOCC4)c3)nc21,1100 nM,680 nM,–
O=c1ccc2cnc(Nc3c(F)cc(F)cc3F)nc2n1C1CCCC1,330 nM,470 nM,–
O=c1ccc2cnc(Nc3cccc(OC(F)(F)C(F)F)c3)nc2n1C1CC2CCC1C2 (configuration not stated),10000 nM,–,275
O=c1ccc2cnc(Nc3ccc(N4CCCCC4)cc3)nc2n1CCCOC1CCCCO1 (configuration not stated),1900 nM,–,284
CCC(CC)n1c(=O)ccc2cnc(Nc3cccc(C(F)(F)F)c3)nc21,600 nM,131 nM,–
CCCn1c(=O)ccc2cnc(Nc3ccc(I)c(Cl)c3)nc21,820 nM,180 nM,–
CCCn1c(=O)ccc2cnc(Nc3ccc(OC)c(O)c3)nc21,960 nM and 1100 nM,240 nM and 670 nM,–
CCCn1c(=O)ccc2cnc(Nc3ccc(NC(=O)OC(C)(C)C)cc3)nc21,2450 nM,820 nM,–

# Continued, values first:
IC50 [1],IC50 [2],IC50 [3] [nM],SMILES
44 nM,–,–,O=c1ccc2cnc(Nc3ccc(N4CCCC(O)C4)cc3)nc2n1C1CCCC1 (configuration not stated)
220 nM,150 nM,–,O=c1ccc2cnc(Nc3ccc(Br)c(C(F)(F)F)c3)nc2n1C1CCCC1
30 nM,–,14.2,O=c1ccc2cnc(Nc3ccc(N4CCC(CCO)CC4)cc3)nc2n1C1CCCCC1
87 nM,–,35.7,O=c1ccc2cnc(Nc3ccc(-n4cccn4)cc3)nc2n1C1CCCC1
260 nM,200 nM,–,O=c1ccc2cnc(Nc3ccc4cn[nH]c4c3)nc2n1CC1CC1
140 nM,–,–,CC(C)n1c(=O)ccc2cnc(Nc3ccc(F)c(Cl)c3)nc21
155 nM,–,–,CCC(CC)n1c(=O)ccc2cnc(Nc3ccc(F)c(C)c3)nc21
193 nM,–,66.8,O=c1ccc2cnc(Nc3ccc(N4CCCCC4)cc3)nc2n1C1CCCCC1
75 nM,35 nM,–,COc1ccc(Nc2ncc3ccc(=O)n(C4CCCC4)c3n2)cc1F
